Measurements taken from ChEMBL document CHEMBL4043198, “Synthesis and electronic properties of ester substituted 1,4-dicyanodibenzodioxins and evaluation of anti-proliferative activity of all isomeric 1,2-, 2,3- and 1,4-dicyanodibenzodioxins against HeLa cell line” (Bioorg Med Chem Lett, 2017).
Calls of active or inactive are those of the source. The calls are words filed in the database; no cut-off is given here.

Tests used:
HeLa [1] = assay: Cytotoxicity against human HeLa cells assessed as reduction in cell viability after 24 hrs by MTT assay; type: functional, cell-based
HeLa [2] = assay: Induction of morphological changes in human HeLa cells assessed as nuclear fragmentation after 24 hrs by Hoechst 33258 staining based fluorescence microscopic analysis; type: functional, cell-based
HeLa [3] = assay: Induction of reactive oxygen species generation in human HeLa cells at 5 to 10 uM after 24 hrs by DCFDA dye-based fluorescence assay; type: functional, cell-based
Bos taurus = species on record: Bos taurus; assay: Binding affinity to calf thymus DNA assessed as intrinsic binding constant by UV spectrophotometry
HeLa [4] = assay: Induction of morphological changes in human HeLa cells assessed as loss of cell shape after 24 hrs by Hoechst 33258 staining based fluorescence microscopic analysis; type: functional
HEK293 = assay: Cytotoxicity against HEK293 cells assessed as reduction in cell viability at 2 to 5 uM after 24 hrs by MTT assay; type: cell-based; settings: human, hek293, 24 h
HeLa [5] = assay: Induction of morphological changes in human HeLa cells assessed as rounding-off of cells after 24 hrs by Hoechst 33258 staining based fluorescence microscopic analysis; type: functional, cell-based
HeLa [6] = assay: Cytotoxicity against human HeLa cells assessed as cell viability at 2 uM after 24 hrs by MTT assay relative to control; type: functional; settings: read-out: Activity
HeLa [7] = assay: Cytotoxicity against human HeLa cells assessed as reduction in cell viability at 2 to 50 uM after 24 hrs by MTT assay relative to control; type: functional

Structure (SMILES) | IC50 (HeLa [1]) | Activity (HeLa [2]) | Activity (HeLa [1]) | Activity (HeLa [3]) | logKb (Bos taurus) | Activity (HeLa [4]) | Activity (HEK293) | Activity (HeLa [5]) | viability at 2 µM (HeLa [6]) | Activity (HeLa [7])
CC/C(=C(\c1ccccc1)c1ccc(OCCN(C)C)cc1)c1ccccc1 [TAMOXIFEN] | 8.85 µM | – | – | – | – | – | – | – | – | –
COC(=O)c1ccc2c(c1)Oc1c(C#N)c(F)c(F)c(C#N)c1O2 | 2.99 µM | Dose-dependent effect | Dose-dependent effect | Active | 5.39 | Dose-dependent effect | Non-Toxic | Dose-dependent effect | 50% | –
N#Cc1cc2c(cc1C#N)Oc1ccccc1O2 | – | – | Dose-dependent effect | – | – | – | Non-Toxic | – | – | 70 - 80%
N#Cc1c(F)c(F)c2c(c1C#N)Oc1ccccc1O2 | 42.2 µM | – | Dose-dependent effect | – | – | – | Non-Toxic | – | – | –
N#Cc1cc2c(cc1C#N)Oc1cc([N+](=O)[O-])ccc1O2 | – | – | – | – | – | – | – | – | – | 70 - 80%
N#Cc1c(F)c(F)c(C#N)c2c1Oc1ccccc1O2 | 9.62 µM | – | Dose-dependent effect | – | – | – | Non-Toxic | – | – | 70 - 80%
CCN(CC)c1c(F)c(C#N)c2c(c1C#N)Oc1ccccc1O2 | 1.47 µM | Dose-dependent effect | Dose-dependent effect | Active | 5.5 | Dose-dependent effect | Non-Toxic | Dose-dependent effect | 30% | –
N#Cc1cc2c(cc1C#N)Oc1cc(Br)ccc1O2 | 8.82 µM | – | Dose-dependent effect | – | – | – | Non-Toxic | – | – | 70 - 80%
COC(=O)c1cccc2c1Oc1c(C#N)c(F)c(F)c(C#N)c1O2 | 1.57 µM | Dose-dependent effect | Dose-dependent effect | Active | 6 | Dose-dependent effect | Non-Toxic | Dose-dependent effect | 35% | –
COc1c(F)c(C#N)c2c(c1C#N)Oc1ccccc1O2 | 1.45 µM | Dose-dependent effect | Dose-dependent effect | Active | 5.38 | Dose-dependent effect | Non-Toxic | Dose-dependent effect | 30% | –
O=c1[nH]cc(F)c(=O)[nH]1 [FLUOROURACIL] | 2.9 µM | – | – | – | – | – | – | – | – | –
